# Laboratory results from publication PMC11207040, “Synthesis and Biological Studies of New Temporin A Analogs Containing Unnatural Amino Acids in Position 7” (Pharmaceutics, 2024).
# Read-outs that look alike come from different tables or passages of the source. Non-standard residues stand in square brackets, D forms with d. Residues, ends and D or L forms follow the SMILES beside them. Orn = NCCC[C@H](N)C(=O)O
# Key:
# [1] = 3T3 NRU cytotoxicity/phototoxicity test; format: cell-based, mouse; conditions: mouse
# Procedure: (§1) The cell lines BALB 3T3 (mouse embryonic fibroblasts) and MCF-12F (human breast epithelial cells) were used as models for healthy tissue. The MCF-7 and MDA-MB-231 cell lines were used as in vitro models for luminal A- and basal B-type breast cancer, respectively. Cell lines were obtained from the American Type Cultures Collection (ATCC, Manassas, VA, USA). Cells were cultured in Dulbecco modified Eagle’s medium (DMEM) supplemented with 10% fetal bovine serum (FBS), 100 U/mL penicillin, and 0.1 mg/mL streptomycin (Sigma-Aldrich, Schnelldorf, Germany) in an incubator at 37 °C, 5% CO2 and 95% humidity. Plastic flasks 75 cm^2 (Biologix, Lenexa, KS, USA) were used to grow the cells.
# (§2) The cytotoxicity/phototoxicity testing was performed as described by the OECD Guidelines for the Testing of Chemicals, Section 4, Test No. 432: In Vitro 3T3 NRU Phototoxicity Test. BALB 3T3, clone A31 cells were grown in 75 cm^2 tissue culture flasks in DMEM high-glucose (4.5 g/L), 10% FBS, and antibiotics at 37.5 °C, in a humidified atmosphere under 5% CO2. Cells were plated at 1 × 10^4 cells / 100 μL culture medium in each well of 96-well microplates and allowed to adhere for 24 h before treatment with test compounds. Peptides were dissolved in DMSO and diluted with culture medium to working concentrations from 4 to 1000 μM. In phototoxicity tests, 96-well plates were irradiated (+Irr) with a dose of 2.4 J/cm^2 using an artificial solar light simulator Helios-iO (SERIC Ltd., Tokyo, Japan), and the cells were incubated for an additional 24 h. After treatment with a Neutral Red medium, washing, and application of the NR Desorb solution, the absorption was measured on a microplate reader at a wavelength of 540 nm. Cytotoxicity/phototoxicity was expressed as CC50 values (concentrations required for 50% cytotoxicity).
# BALB 3T3 clone A31 cells = experiment: 3T3 NRU cytotoxicity/phototoxicity test; format: cell-based, mouse
# Procedure: as §1, §2
# MCF-12F cells = experiment: MTT antiproliferative assay, MCF-12F; format: cell-based, human; conditions: 72 h, non-tumorigenic cell line, read-out: Mean IC50 ± SD, MCF-12F
# Procedure: as §1
# (§3) The antiproliferative activity testing was performed on cell cultures using the MTT-dye reduction assay. This assay is based on the metabolism of MTT to insoluble formazan by mitochondrial reductases. The formazan concentration can be determined spectrophotometrically. The measured absorption is an indicator of cell viability. Cell lines (MCF-12F, MCF-7 and MDA-MB-231) were used in the experiments. Cells were plated at a density of 1 × 10^3 cells/100 µL in each well of 96-well microplates and allowed to adhere for 24 h before treatment with test compounds. A concentration range from 4 to 1000 μM was applied for 72 h. The formazan absorption was registered using a microplate reader at λ = 540 nm. Antiproliferative activities were expressed as IC50 values (concentrations required for 50% inhibition of cell growth).
# MCF-7 cells = experiment: MTT antiproliferative assay, MCF-7; format: cell-based, human; conditions: for IC50: MTT, 72 h, read-out: Mean IC50 ± SD, MCF-7; for SI (Selectivity Index), MCF-7: SI = IC50 MCF-12F/IC50 tumor cells
# Procedure: as §1, §3
# MDA-MB-231 cells = experiment: MTT antiproliferative assay, MDA-MB-231; format: cell-based, human; conditions: for IC50: MTT, 72 h, read-out: Mean IC50 ± SD, MDA-MB-231; for SI (Selectivity Index), MDA-MB-231: SI = IC50 MCF-12F/IC50 tumor cells
# Procedure: as §1, §3
# [2] = test system: Arthrobacter oxydans NBIMCC 9333; format: cell-based; conditions: for Inhibition effect, A. oxydans 9333: zone of peptide over zone of antibiotic x 100; for Inhibition zone, A. oxydans 9333: 20 µL per disc, 24 h
# Procedure: (§4) The parent peptide Temporin A and the novel analogs were subjected to tests against model strains Escherichia coli NBIMCC 8785, Bacillus subtilis NBIMCC 3562, Arthrobacter oxydans NBIMCC 9333, Pseudomonas aeruginosa NBIMCC 3700, and Candida albicans NBIMCC 74, for the assessment of their antimicrobial activity. The strains were acquired from the National Bank for Industrial Microorganisms and Cell Cultures (NBIMCC, Bulgaria). The strain E. coli 8785 was cultured in Luria-Bertani broth (LB, HiMedia, Mumbai, India); B. subtilis 3562—in nutrient broth (NB, HiMedia, Mumbai, India); A. oxydans 9333; P. aeruginosa 3700—in meat peptone agar (MPA) medium; and C. albicans 74—in yeast mold (YM) medium. An incubator shaker ES-20/60 (Biosan, Latvia) was used for the cultivation and was set to 30 °C for B. subtilis 3562, A. oxydans 9333, and C. albicans 74; and 37 °C for E. coli 8785 and P. aeruginosa 3700, with a 24 h shaking period at 120 rpm. The microbial cultures were then adjusted to a turbidity of 0.5 McFarland using a Grant-bio DEN-1B densitometer (Grant Instruments, Royston, UK) for further use.
# (§5) The disk-diffusion method was used as an additional method, with the aim of determining the percent inhibition of the tested samples against the model strains. Sterile plates with LB/NB/MPA/YM agar medium were inoculated on the surface with 100 μL from each microbial culture and incubated at 30 or 37 °C for 30 min, for the suspension to penetrate the agar. After that, sterile paper discs (HiMedia, Mumbai, India) with a diameter of 6 mm were soaked with 20 µL of the peptide solutions with concentrations of 1.4 mg/mL and 10 mg/mL and placed on the agar surface. Sterile paper discs with 10% EtOH/H2O were used as a negative control, and the corresponding strain antibiotic disks (HiMedia, Mumbai, India)—as a positive control. The incubation of the plate was performed at 30/37 °C for 24 h. The antimicrobial activity was analyzed by measuring the diameter of the inhibition zones in mm. The experiments were conducted in triplicates, and the average values for the percent of inhibition as a correlation between the inhibition zone of the peptides over the inhibition zone of the antibiotic multiplied by 100 were calculated.
# [3] = test system: Bacillus subtilis NBIMCC 3562; format: cell-based; conditions: for Inhibition effect, B. subtilis 3562: zone of peptide over zone of antibiotic x 100; for Inhibition zone, B. subtilis 3562: 20 µL per disc, 24 h
# Procedure: as §4, §5
# [4] = test system: Candida albicans NBIMCC 74; format: cell-based; conditions: 20 µL per disc, 24 h
# Procedure: as §4, §5
# [5] = test system: Escherichia coli NBIMCC 8785; format: cell-based; conditions: 20 µL per disc, 24 h
# Procedure: as §4, §5
# [6] = test system: Pseudomonas aeruginosa NBIMCC 3700; format: cell-based; conditions: for Inhibition effect, P. aeruginosa 3700: zone of peptide over zone of antibiotic x 100; for Inhibition zone, P. aeruginosa 3700: 20 µL per disc, 24 h
# Procedure: as §4, §5
# [7] = test system: Arthrobacter oxydans NBIMCC 9333; format: cell-based; conditions: 24 h
# Procedure: as §4
# (§6) The minimal inhibitory concentration (MIC) of the peptides was determined using the broth dilution method. Stock solutions of the peptides with a concentration of 10 mg/mL in 10% EtOH/H2O were prepared. Suspensions of the bacteria in the corresponding media were added to 96-well U-shaped bottom polystyrene plates (Deltalab S.L., Spain) and exposed to the peptide in the concentration range from 0 to 320 µg/mL, and a 10% EtOH/H2O control, diluted using the same scheme as the peptides, was also used. The plates were then incubated under aerobic conditions at the corresponding temperature for 24 h. The MIC (µg/mL) was assumed as the lowest concentration of the antimicrobial, where there was visible inhibition of the strain. The absorbance was measured at 630 nm (Microplate reader PKL PPC 142, Paramedical srl, Salerno, Italy). To determine the minimal bactericidal concentration (MBC) and minimal fungicidal concentration (MFC), 10 μL from concentrations greater than or equal to the MIC was placed on the corresponding solid nutrient medium. The Petri dishes were then incubated at 30 or 37 °C for 24 h. All experiments were conducted in a triplicate.
# [8] = test system: Bacillus subtilis NBIMCC 3562; format: cell-based
# Procedure: as §4, §6
# [9] = test system: Candida albicans NBIMCC 74; format: cell-based; conditions: NBIMCC 74, 24 h
# Procedure: as §4, §6
# [10] = test system: Escherichia coli NBIMCC 8785; format: cell-based; conditions: NBIMCC 8785, 24 h
# Procedure: as §4, §6
# [11] = test system: Pseudomonas aeruginosa NBIMCC 3700; format: cell-based; conditions: NBIMCC 3700, 24 h
# Procedure: as §4, §6
structure (smiles),measurement,setting,value
"CC[C@H](C)[C@H](NC(=O)CNC(=O)[C@H](CO)NC(=O)[C@H](CC(C)C)NC(=O)[C@@H](NC(=O)[C@H](CCCN)NC(=O)CNC(=O)[C@@H](NC(=O)[C@H](CC(C)C)NC(=O)[C@@H]1CCCN1C(=O)[C@H](CC(C)C)NC(=O)[C@@H](N)Cc1ccccc1)[C@@H](C)CC)C(C)C)C(=O)N[C@@H](CC(C)C)C(N)=O [DTOrn, FLPLIG-Orn-VLSGIL-NH2] (H-FLPLIG[Orn]VLSGIL-NH2; N-terminus assumed)",CC50,"[1]; cytotoxicity, no irradiation, BALB 3T3 clone A31, Neutral Red uptake, read-out: Mean CC50 ± SD, −Irr",337 ± 7.09 µM
same,CC50 at 24 h,"[1]; phototoxicity, irradiated 2.4 J/cm^2, BALB 3T3 clone A31, Neutral Red uptake, read-out: Mean CC50 ± SD, +Irr",345 ± 6.41 µM
same,PIF (photo irritation factor),"BALB 3T3 clone A31 cells; PIF = CC50 −Irr/CC50 +Irr, PIF < 2 = not phototoxic",0.98
same,IC50,MCF-12F cells,306 ± 10.8 µM
same,IC50,MCF-7 cells,196 ± 3.63 µM
same,"SI (Selectivity Index), MCF-7",MCF-7 cells,1.56
same,IC50,MDA-MB-231 cells,303 ± 8.67 µM
same,"SI (Selectivity Index), MDA-MB-231",MDA-MB-231 cells,1.01
same,"Inhibition effect, A. oxydans 9333",[2]; 1.4 mg/mL,0.0%
same,"Inhibition effect, A. oxydans 9333",[2]; 10 mg/mL,43.7%
same,"Inhibition zone, A. oxydans 9333",[2]; peptide 1.4 mg/mL,0.0 mm
same,"Inhibition zone, A. oxydans 9333",[2]; peptide 10 mg/mL,8.3 ± 0.6 mm
same,"Inhibition effect, B. subtilis 3562",[3]; 1.4 mg/mL,0.0%
same,"Inhibition effect, B. subtilis 3562",[3]; 10 mg/mL,32.8%
same,"Inhibition zone, B. subtilis 3562",[3]; peptide 1.4 mg/mL,0.0 mm
same,"Inhibition zone, B. subtilis 3562",[3]; peptide 10 mg/mL,8.2 ± 0.3 mm
same,"Inhibition zone, C. albicans 74",[4]; peptide 1.4 mg/mL,0.0 mm
same,"Inhibition zone, C. albicans 74",[4]; peptide 10 mg/mL,0.0 mm
same,"Inhibition zone, E. coli 8785",[5]; peptide 1.4 mg/mL,0.0 mm
same,"Inhibition zone, E. coli 8785",[5]; peptide 10 mg/mL,0.0 mm
same,"Inhibition effect, P. aeruginosa 3700",[6]; 1.4 mg/mL,0.0%
same,"Inhibition effect, P. aeruginosa 3700",[6]; 10 mg/mL,70.6%
same,"Inhibition zone, P. aeruginosa 3700",[6]; peptide 1.4 mg/mL,0.0 mm
same,"Inhibition zone, P. aeruginosa 3700",[6]; peptide 10 mg/mL,11.3 ± 0.6 mm
same,"MIC, A. oxydans 9333","[7]; broth dilution, 0 to 320 µg/mL, NI = no inhibition monitored",160 µg/mL
same,"MBC, A. oxydans 9333",[7]; plated from concentrations ≥ MIC,160 µg/mL
same,"MIC, B. subtilis 3562","[8]; broth dilution, 0 to 320 µg/mL, 24 h, NI = no inhibition monitored",160 µg/mL
same,"MBC, B. subtilis 3562","[8]; plated from concentrations ≥ MIC, 24 h",320 µg/mL
"CC[C@H](C)[C@H](NC(=O)CNC(=O)[C@H](CO)NC(=O)[C@H](CC(C)C)NC(=O)[C@@H](NC(=O)[C@H](CCCNC(=N)N)NC(=O)CNC(=O)[C@@H](NC(=O)[C@H](CC(C)C)NC(=O)[C@@H]1CCCN1C(=O)[C@H](CC(C)C)NC(=O)[C@@H](N)Cc1ccccc1)[C@@H](C)CC)C(C)C)C(=O)N[C@@H](CC(C)C)C(N)=O [DTA, FLPLIG-R-VLSGIL-NH2, reference compound] (H-FLPLIGRVLSGIL-NH2)",CC50,[1],106 ± 4.18 µM
same,CC50 at 24 h,[1],105 ± 4.88 µM
same,PIF (photo irritation factor),BALB 3T3 clone A31 cells,1.01
same,IC50,MCF-12F cells,139 ± 8.36 µM
same,IC50,MCF-7 cells,73.2 ± 3.36 µM
same,"SI (Selectivity Index), MCF-7",MCF-7 cells,1.90
same,IC50,MDA-MB-231 cells,115 ± 4.04 µM
same,"SI (Selectivity Index), MDA-MB-231",MDA-MB-231 cells,1.20
same,"MIC, A. oxydans 9333",[7],80 µg/mL
same,"MBC, B. subtilis 3562","[8]; NBIMCC 3562, 24 h",320 µg/mL
same,"MIC, B. subtilis 3562","[8]; NBIMCC 3562, 24 h",80 µg/mL
same,"MIC, C. albicans 74",[9],320 µg/mL
same,"MIC, E. coli 8785",[10],320 µg/mL
same,"MBC, P. aeruginosa 3700",[11],320 µg/mL
